Literature values as cited in US20180009934A1, “HIGH […] […] RESINS” (priority 2016, published 2018).

Settings: monomer property, Table 1; species and route not given

C=Cc1ccccc1 [STYRENE, styrene]
Toxicity LD50: >2000 mg/kg

C=Cc1ccc(C(C)(C)C)cc1 [Monomer 1, 4-tert butyl styrene]
Toxicity LD50: >2000 mg/kg
